What was measured:
Experiment in all cases: Bliss excess, mean over the matrix (fraction); higher = more synergy
42-MG-BA (Glioblastoma) = tested on: 42-MG-BA (Glioblastoma)
Summary of the method: (§1)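 After 24 hours at 37°C and 5% CO2 in 1536-well plates, cells in DMEM/F12 or RPMI plus 10% FBS received two-drug dose matrices for 72 hours. Viability came from CellTiter-Glo 2.0 luminescence and was scaled as inhibition, anchored at 0 by vehicle wells and at 1 by blank wells. Combination Emax is taken as the second-highest inhibition in the matrix, and Bliss excess as the observed combination effect less EA + EB − EA·EB, with EA and EB the single-agent effects.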

AGS (Gastric Carcinoma) = tested on: AGS (Gastric Carcinoma)
Summary of the method: as §1

[1] = tested on: CCRF-CEM (T-Lymphoblastic Leukemia)
Summary of the method: as §1

[2] = tested on: CaR-1 (Colorectal Carcinoma)
Summary of the method: as §1

[3] = tested on: DEL (T-Cell Non-Hodgkin's Lymphoma)
Summary of the method: as §1

ES4 (Ewing's Sarcoma) = tested on: ES4 (Ewing's Sarcoma)
Summary of the method: as §1

[4] = tested on: LB831-BLC (Bladder Carcinoma)
Summary of the method: as §1

[5] = tested on: LU-135 (Small Cell Lung Carcinoma)
Summary of the method: as §1

[6] = tested on: MDA-MB-361 (Breast Carcinoma)
Summary of the method: as §1

[7] = tested on: ME-1 (Acute Myeloid Leukemia)
Summary of the method: as §1

[8] = tested on: MFE-296 (Endometrial Carcinoma)
Summary of the method: as §1

[9] = tested on: NCI-H2085 (Non-Small Cell Lung Carcinoma)
Summary of the method: as §1

[10] = tested on: RC-K8 (B-Cell Non-Hodgkin's Lymphoma)
Summary of the method: as §1

[11] = tested on: Ramos-2G6-4C10 (Burkitt's Lymphoma)
Summary of the method: as §1

[12] = tested on: SK-ES-1 (Ewing's Sarcoma)
Summary of the method: as §1

[13] = tested on: SNU-5 (Gastric Carcinoma)
Summary of the method: as §1

T98G (Glioblastoma) = tested on: T98G (Glioblastoma)
Summary of the method: as §1

[14] = tested on: TE-15 (Esophageal Squamous Cell Carcinoma)
Summary of the method: as §1

[15] = tested on: TE-9 (Esophageal Squamous Cell Carcinoma)
Summary of the method: as §1

[16] = tested on: UM-UC-3 (Bladder Carcinoma)
Summary of the method: as §1

COc1nnc2ccc(N3CCC(c4ccc(OCCN5CCN(C)C(=O)[C@H]5C)cc4)CC3)nn12 [AZD5153] + CC1(C)CCC(CN2CCN(c3ccc(C(=O)NS(=O)(=O)c4ccc(NCC5CCOCC5)c([N+](=O)[O-])c4)c(Oc4cnc5[nH]ccc5c4)c3)CC2)=C(c2ccc(Cl)cc2)C1 [Venetoclax] (first compound max 1 µM, 7x7, partner max 1 µM)
Bliss excess (42-MG-BA (Glioblastoma)): -0.0391
Bliss excess (AGS (Gastric Carcinoma)): -0.0619
Bliss excess [1]: -0.0742
Bliss excess [2]: -0.0643
Bliss excess [3]: -0.0559
Bliss excess (ES4 (Ewing's Sarcoma)): -0.111
Bliss excess [4]: -0.0627
Bliss excess [5]: -0.001
Bliss excess [6]: -0.0257
Bliss excess [7]: 0.0529
Bliss excess [8]: -0.0824
Bliss excess [9]: -0.0655
Bliss excess [10]: -0.0587
Bliss excess [11]: -0.0041
Bliss excess [12]: -0.0092
Bliss excess [13]: -0.0754
Bliss excess (T98G (Glioblastoma)): -0.0115
Bliss excess [14]: -0.0698
Bliss excess [15]: -0.0599
Bliss excess [16]: -0.043

COc1nnc2ccc(N3CCC(c4ccc(OCCN5CCN(C)C(=O)[C@H]5C)cc4)CC3)nn12 [AZD5153] + CCN(CCO)CCCOc1ccc2c(Nc3cc(CC(=O)Nc4cccc(F)c4)[nH]n3)ncnc2c1 [AZD2811] (first compound max 1 µM, 7x7, partner max 1 µM)
Bliss excess (42-MG-BA (Glioblastoma)): -0.0476
Bliss excess (AGS (Gastric Carcinoma)): 0.0294
Bliss excess [1]: -0.0407
Bliss excess [2]: -0.0663
Bliss excess [3]: -0.0462
Bliss excess (ES4 (Ewing's Sarcoma)): 0.0055
Bliss excess [4]: -0.0647
Bliss excess [5]: -0.0449
Bliss excess [6]: -0.0448
Bliss excess [7]: -0.0534
Bliss excess [8]: -0.0264
Bliss excess [9]: -0.0594
Bliss excess [10]: 0.0154
Bliss excess [11]: -0.0004
Bliss excess [12]: -0.0695
Bliss excess [13]: -0.0501
Bliss excess (T98G (Glioblastoma)): -0.014
Bliss excess [14]: -0.0535
Bliss excess [15]: -0.0096
Bliss excess [16]: 0.0346

COc1nnc2ccc(N3CCC(c4ccc(OCCN5CCN(C)C(=O)[C@H]5C)cc4)CC3)nn12 [AZD5153] + C[C@@H]1COCCN1C2=NC(=NC(=C2)C3(CC3)[S@](=N)(=O)C)C4=C5C=CNC5=NC=C4 [AZD6738] (first compound max 1 µM, 7x7, partner max 10 µM)
Bliss excess (42-MG-BA (Glioblastoma)): -0.0155
Bliss excess (AGS (Gastric Carcinoma)): 0.0381
Bliss excess [1]: -0.0178
Bliss excess [2]: 0.0411
Bliss excess [3]: 0.0007
Bliss excess (ES4 (Ewing's Sarcoma)): 0.0104
Bliss excess [4]: 0.0393
Bliss excess [5]: 0.0397
Bliss excess [6]: -0.0172
Bliss excess [7]: -0.0693
Bliss excess [8]: 0.0129
Bliss excess [9]: 0.0107
Bliss excess [10]: -0.0424
Bliss excess [11]: -0.0534
Bliss excess [12]: 0.0023
Bliss excess [13]: -0.0128
Bliss excess (T98G (Glioblastoma)): -0.0206
Bliss excess [14]: -0.0096
Bliss excess [15]: 0.0039
Bliss excess [16]: 0.0647

COc1nnc2ccc(N3CCC(c4ccc(OCCN5CCN(C)C(=O)[C@H]5C)cc4)CC3)nn12 [AZD5153] + Cc1c2c(nn1C)CSCc1cc(n(C)n1)CSc1cc(c3ccccc3c1)OCCCc1c(C(=O)O)n(C)c3c-2c(Cl)ccc13 [AZD5991] (first compound max 1 µM, 7x7, partner max 1 µM)
Bliss excess (42-MG-BA (Glioblastoma)): 0.0576
Bliss excess (AGS (Gastric Carcinoma)): -0.0166
Bliss excess [1]: -0.0035
Bliss excess [2]: -0.0548
Bliss excess [3]: -0.0475
Bliss excess (ES4 (Ewing's Sarcoma)): -0.0665
Bliss excess [4]: -0.0588
Bliss excess [5]: 0.0517
Bliss excess [6]: -0.0406
Bliss excess [7]: -0.0162
Bliss excess [8]: 0.028
Bliss excess [9]: -0.0081
Bliss excess [10]: -0.0446
Bliss excess [11]: 0.0407
Bliss excess [12]: 0.0048
Bliss excess [13]: -0.0069
Bliss excess (T98G (Glioblastoma)): 0.0021
Bliss excess [14]: -0.0124
Bliss excess [15]: -0.007
Bliss excess [16]: 0.0031

COc1nnc2ccc(N3CCC(c4ccc(OCCN5CCN(C)C(=O)[C@H]5C)cc4)CC3)nn12 [AZD5153] + Cn1cnc2c(F)c(Nc3ccc(Br)cc3Cl)c(C(=O)NOCCO)cc21 [Selumetinib] (first compound max 1 µM, 7x7, partner max 10 µM)
Bliss excess (42-MG-BA (Glioblastoma)): -0.0245
Bliss excess (AGS (Gastric Carcinoma)): 0.0163
Bliss excess [1]: -0.0015
Bliss excess [2]: 0.0208
Bliss excess [3]: -0.0896
Bliss excess (ES4 (Ewing's Sarcoma)): -0.0697
Bliss excess [4]: -0.0446
Bliss excess [5]: -0.0138
Bliss excess [6]: 0.0073
Bliss excess [7]: -0.0302
Bliss excess [8]: -0.0519
Bliss excess [9]: 0.027
Bliss excess [10]: -0.048
Bliss excess [11]: -0.0465
Bliss excess [12]: -0.0188
Bliss excess [13]: -0.0254
Bliss excess (T98G (Glioblastoma)): 0.0403
Bliss excess [14]: 0.0225
Bliss excess [15]: -0.0161
Bliss excess [16]: 0.113

Cc1c2c(nn1C)CSCc1cc(n(C)n1)CSc1cc(c3ccccc3c1)OCCCc1c(C(=O)O)n(C)c3c-2c(Cl)ccc13 [AZD5991] + C1CN(CCC1(C(=O)N[C@@H](CCO)C2=CC=C(C=C2)Cl)N)C3=NC=NC4=C3C=CN4 [Capivasertib] (first compound max 1 µM, 7x7, partner max 3 µM)
Bliss excess (42-MG-BA (Glioblastoma)): -0.0442
Bliss excess (AGS (Gastric Carcinoma)): 0.0013
Bliss excess [1]: 0.0618
Bliss excess [2]: -0.0295
Bliss excess [3]: -0.012
Bliss excess (ES4 (Ewing's Sarcoma)): 0.0162
Bliss excess [4]: 0.0133
Bliss excess [5]: -0.0112
Bliss excess [6]: 0.0211
Bliss excess [7]: 0.0415
Bliss excess [8]: 0.094
Bliss excess [9]: -0.0334
Bliss excess [10]: -0.03
Bliss excess [11]: 0.0094
Bliss excess [12]: 0.0217
Bliss excess [13]: 0.0135
Bliss excess (T98G (Glioblastoma)): -0.0178
Bliss excess [14]: -0.0196
Bliss excess [15]: 0.0095
Bliss excess [16]: -0.0231

Cc1c2c(nn1C)CSCc1cc(n(C)n1)CSc1cc(c3ccccc3c1)OCCCc1c(C(=O)O)n(C)c3c-2c(Cl)ccc13 [AZD5991] + C=CCn1c(=O)c2cnc(Nc3ccc(N4CCN(C)CC4)cc3)nc2n1-c1cccc(C(C)(C)O)n1 [AZD1775] (first compound max 1 µM, partner max 1 µM)
Bliss excess (42-MG-BA (Glioblastoma)): 0.0071
Bliss excess (AGS (Gastric Carcinoma)): -0.0145
Bliss excess [1]: -0.0011
Bliss excess [2]: -0.0103
Bliss excess [3]: -0.0201
Bliss excess (ES4 (Ewing's Sarcoma)): 0.0578
Bliss excess [4]: -0.0044
Bliss excess [5]: -0.0654
Bliss excess [6]: -0.052
Bliss excess [7]: 0.041
Bliss excess [8]: -0.0025
Bliss excess [9]: -0.0165
Bliss excess [10]: -0.0294
Bliss excess [11]: -0.0413
Bliss excess [12]: -0.0008
Bliss excess [13]: -0.0291
Bliss excess (T98G (Glioblastoma)): -0.0198
Bliss excess [14]: -0.0135
Bliss excess [15]: 0.0286
Bliss excess [16]: -0.0077

Reference: the supplement of paper PMC11061612
